This passage reports TGI and GI50 results from PubChem BioAssay (NCI).

Each structure is given as a SMILES string.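 Tested at 5 concentrations; 48 h exposure; 96-well plates; endpoints linearly interpolated, else capped at highest concentration. The concentration for 50% growth inhibition is given as GI50. TGI is the concentration that stops growth completely.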

Some test systems named below: TK-10 renal; UACC-257 melanoma; OVCAR-5 ovarian; NCI-H23 lung; SK-MEL-2 melanoma; SF-268 CNS; DU-145 prostate; HOP-92 NSCLC; SF-539 CNS; UACC-62 melanoma.
Experiment in all cases: growth of human tumour cells (NCI), 48 h

Regarding `C/C(=N\N)C(CN1CCCCC1)C(c1ccccc1)c1c(O)c2ccccc2oc1=O` (stereo not given), the TGI in the assay on TK-10 renal, in the assay on UACC-257 melanoma, with OVCAR-5 ovarian, with NCI-H23 lung, with SK-MEL-2 melanoma and with SF-268 CNS was more than 100 µM each time. Besides, the TGI with DU-145 prostate, in the assay on HOP-92 NSCLC, in the assay on SF-539 CNS and in the assay on UACC-62 melanoma was more than 100 µM throughout.

`Oc1ccccc1/C=N/Nc1nc2ccccc2s1`: the GI50 is 4.79 µM in the assay on TK-10 renal; 8.87 µM in the assay with UACC-257 melanoma; more than 100 µM with OVCAR-5 ovarian; 23.3 µM in the assay on NCI-H23 lung; 8.74 µM with SK-MEL-2 melanoma; 3.8 µM in the assay on SF-268 CNS. Also, the GI50 in the assay with DU-145 prostate is 9.35 µM; in the assay on HOP-92 NSCLC, 0.74 µM; with SF-539 CNS, 4.67 µM; in the assay on UACC-62 melanoma, 8.97 µM. In addition, the TGI in the assay on TK-10 renal, with UACC-257 melanoma, with OVCAR-5 ovarian, in the assay on NCI-H23 lung, in the assay on SK-MEL-2 melanoma and in the assay with SF-268 CNS was more than 100 µM in each case. For the same compound, the TGI in the assay on DU-145 prostate was more than 100 µM; in the assay on HOP-92 NSCLC, 19.5 µM; with SF-539 CNS it was more than 100 µM; with UACC-62 melanoma, more than 100 µM.

As for `O=S1(=O)OCc2ccccc21`, the TGI with TK-10 renal, in the assay on UACC-257 melanoma, in the assay with OVCAR-5 ovarian, in the assay on NCI-H23 lung, in the assay on SK-MEL-2 melanoma and in the assay with SF-268 CNS was more than 100 µM each time. In addition, the TGI in the assay on DU-145 prostate, with HOP-92 NSCLC, with SF-539 CNS and in the assay on UACC-62 melanoma was more than 100 µM each time.

Take `CCN(CC)c1ccc(CNc2cc(C)nc3ccc(OC)cc23)cc1`: the GI50 was 1.92 µM in the assay on TK-10 renal; 2.14 µM with UACC-257 melanoma; 5.37 µM in the assay on OVCAR-5 ovarian; 2.7 µM in the assay with NCI-H23 lung; 1.83 µM in the assay with SK-MEL-2 melanoma; 4.17 µM in the assay on SF-268 CNS. In addition, the GI50 is 6.17 µM with DU-145 prostate, 2 µM with HOP-92 NSCLC, 2.22 µM in the assay on SF-539 CNS and 1.72 µM in the assay with UACC-62 melanoma. The TGI with TK-10 renal worked out at 4.64 µM; in the assay on UACC-257 melanoma it was 4.53 µM; in the assay with OVCAR-5 ovarian, 18.6 µM; with NCI-H23 lung it was 9.8 µM; in the assay with SK-MEL-2 melanoma, 3.56 µM; in the assay on SF-268 CNS, 16.1 µM. The TGI is 18.6 µM in the assay on DU-145 prostate, 6.26 µM with HOP-92 NSCLC, 4.36 µM in the assay on SF-539 CNS and 3.67 µM in the assay on UACC-62 melanoma.

On to `COc1ccc(C2CC(c3ccc4ccccc4c3)=NN2/C=C2\SC(=S)N(NC(=O)Cc3ccccc3Nc3c(Cl)cccc3Cl)C2=O)cc1` (stereo not given), for which the GI50 in the assay with TK-10 renal is 3.57 µM; in the assay on UACC-257 melanoma it was 3.86 µM; with OVCAR-5 ovarian, 1.74 µM; in the assay with NCI-H23 lung, 0.793 µM; with SK-MEL-2 melanoma, 2.95 µM; with SF-268 CNS, 0.809 µM. For the same compound, the GI50 was 0.404 µM with DU-145 prostate, 1.27 µM with HOP-92 NSCLC, 0.282 µM in the assay with SF-539 CNS and 0.606 µM with UACC-62 melanoma. Further, the TGI in the assay with TK-10 renal is 43.2 µM; in the assay on UACC-257 melanoma, more than 100 µM; with OVCAR-5 ovarian, more than 45.6 µM; in the assay with NCI-H23 lung, more than 46.8 µM; in the assay with SK-MEL-2 melanoma it was 18.8 µM; with SF-268 CNS, more than 48.8 µM. The TGI with DU-145 prostate is 27.1 µM; with HOP-92 NSCLC, more than 53.4 µM; in the assay on SF-539 CNS, 1.12 µM; with UACC-62 melanoma, more than 43.8 µM.

With `COc1ccc(C(=O)OC2C(OC3C(O)COC(O[C@H]4C[C@H]5[C@@H]6CC=C7C[C@@H](O)CC[C@]7(C)[C@H]6CC[C@]5(C)[C@H]4[C@H](C)C(=O)CCC(C)C)C3OC(=O)C(C)C)OCC(O)C2O)cc1` (stereo not given in full), the GI50 with TK-10 renal is 0.411 µM; in the assay on UACC-257 melanoma, 0.0342 µM; in the assay with OVCAR-5 ovarian it was 0.204 µM; in the assay on NCI-H23 lung it was 0.175 µM; with SK-MEL-2 melanoma, 0.0102 µM; with SF-268 CNS, 0.0195 µM. The GI50 is 0.017 µM in the assay on DU-145 prostate, 0.0208 µM in the assay with HOP-92 NSCLC, less than 0.00275 µM in the assay on SF-539 CNS and 0.00668 µM in the assay on UACC-62 melanoma. Also, the TGI with TK-10 renal turned out to be 6.24 µM; in the assay with UACC-257 melanoma, 0.114 µM; with OVCAR-5 ovarian it was 5.22 µM; with NCI-H23 lung, 4.67 µM; in the assay with SK-MEL-2 melanoma, 0.213 µM; with SF-268 CNS, 3.33 µM. The TGI was 4.65 µM with DU-145 prostate, 3.1 µM with HOP-92 NSCLC, 0.0289 µM in the assay on SF-539 CNS and 0.0185 µM with UACC-62 melanoma.

Consider `COc1ccc(-c2cc(=O)c3c(OC)c(O)c(OC)cc3o2)cc1`, for which the TGI with TK-10 renal was 94 µM; in the assay with UACC-257 melanoma, more than 100 µM; with OVCAR-5 ovarian, more than 100 µM; in the assay on NCI-H23 lung, more than 100 µM; with SK-MEL-2 melanoma, more than 100 µM; with SF-268 CNS, more than 100 µM. For the same compound, the TGI was more than 100 µM with DU-145 prostate, 89.6 µM with HOP-92 NSCLC, more than 100 µM in the assay on SF-539 CNS and more than 100 µM in the assay on UACC-62 melanoma.

Consider `C/C(=N\NC(=O)c1cccc(S(=O)(=O)N2CCN(C)CC2)c1)c1cc(Cl)ccc1O`, for which the GI50 in the assay with TK-10 renal is 0.491 µM; with UACC-257 melanoma, 2.37 µM; with OVCAR-5 ovarian, 1.86 µM; in the assay on NCI-H23 lung, 0.74 µM; with SK-MEL-2 melanoma, 3.46 µM; in the assay on SF-268 CNS, 0.933 µM. In addition, the GI50 in the assay on DU-145 prostate is 1.15 µM; in the assay on HOP-92 NSCLC, 4.85 µM; in the assay with SF-539 CNS it was 1.06 µM; in the assay on UACC-62 melanoma, 0.873 µM. Moreover, the TGI is more than 88.6 µM in the assay with TK-10 renal; 25.8 µM in the assay with UACC-257 melanoma; more than 100 µM with OVCAR-5 ovarian; 45 µM with NCI-H23 lung; more than 72.6 µM with SK-MEL-2 melanoma; more than 63.8 µM in the assay on SF-268 CNS. The TGI was more than 100 µM with DU-145 prostate, more than 90.1 µM in the assay on HOP-92 NSCLC, 21.8 µM with SF-539 CNS and 6.4 µM with UACC-62 melanoma.
